Measurements reported in patent US20100239568A1, “DIAGNOSTICS AND TREATMENTS FOR TUMORS” (GENENTECH, INC., priority 2006, published 2010).

B1: MIP-1alpha: macrophage inflammatory protein-1a (protein, UniProt P10147 24-92, looked up)
C-C motif chemokine 3: SLAADTPTACCFSYTSRQIPQNFIADYFETSSQCSKPGVIFLTKRSRQVCADPSEEWVQKYVSDLELSA

Tests used:
[1] = system: human cancers, including renal and ovarian carcinomas; settings: clinical evaluation; cited from earlier work
xenograft models = settings: most xenograft models tested; cited from earlier work
TIB6 tumors = assay: Tumor growth of TIB6 tumors in mice; type: in vivo, mouse; settings: TIB6 in C57BL/6; 5FU 50 mg/kg once a week, Gemcitabine 120 mg/kg twice a week, IP; day 17
Experimental: (§1) Cell Lines. The EL4, LLC, B16F1 and TIB6 (J558) tumor cell lines were obtained from American Type Culture Collection (ATCC) and maintained in tissue culture in high glucose Dulbecco's Modified Medium (DMEM) and supplemented with 10% fetal bovine serum (FBS) and 2 mM glutamine. The terms “B16F1” and “B16” are used interchangeably herein to refer to the same melanoma cell line.
(§2) Antibodies. Anti-VEGF, such as G6-23, is an antibody that binds to and neutralizes murine and human forms of VEGF. Derived from phage display technology, the IgG portion comprised murine isotype IgG2a (see, e.g., Malik, A. K. et al. Redundant roles of VEGF-B and P1GF during selective VEGF-A blockade in mice. Blood 107:550-7 (2006)) and was dosed at 10 mg/kg, IP, twice weekly unless indicated otherwise. Isotype-matched control antibody was anti-human ragweed-IgG2a (Genentech, Inc.). […] Tumor measurement was performed twice/week and terminal tumor weights were determined as described above.
B16F1 admixing experiments. […] Tumor size was assessed using Vernier calipers 2-3 times per week after tumors reached a palpable size. Tumor volume was determined using the Pi/6×L×W×W formula with L as the longest diameter and W the diameter at the position perpendicular to L.
Chemotherapy. […] Tumor volume was measured twice a week and was calculated as described.

CD11b+Gr1+ cells = assay: Flow cytometry of myeloid cells in tumor, bone marrow and peripheral blood of treated mice; type: in vivo, mouse; settings: for CD11b+Gr1+ cells in B16F1 tumors after chemotherapy: tumor isolates after 17 days
Experimental: Flow cytometry. Tumors of control and anti-VEGF-treated mice were isolated and single cell suspension was generated by chopping of tumor tissues followed by treatment with a cell homogenizer (VWR). BMMNCs were flushed from femur and tibia of implated animals and underwent RBC lysis using ACK lysis buffer (Cambrex, Mass.). Peripheral blood was collected by retro-orbital bleed and 40 μl of peripheral blood was pre-treated with ACK buffer for red blood cells lysis.
Cells from BM, tumor or peripheral blood were stained with a series of monoclonal antibodies including, CD11b, Gr1, CD19, CD90, VEGFR2, CXCR4, L-Selectin2 (all from BD BioSciences, CA), VEGFR1 (R&D, CA), Tie2 (eBioSciences, CA) along with appropriate isotype control to investigate the myeloid and lymphoid fractions in each compartment. FACS data were acquired on FACS calibur and analyzed by Cell Quest Pro software (BD Biosciences).
To isolate GFP+ cells and/or CD11b+Gr1+, single cell suspension was provided from the bone marrow or tumors of implanted mice. Cells and were stained with anti-CD11b conjugated to APC and anti-Gr1 conjugated to PE. Populations of GFP, GFP−, CD11b+Gr1+ and CD11b−Gr1− cells were isolated in a FACS Vantage machine and post-sort analysis ensured the purity of the population of interest in each compartment.

LLC tumors = assay: Tumor growth of LLC tumors in mice; type: in vivo, mouse; settings: LLC in C57BL/6; 5FU 50 mg/kg once a week, Gemcitabine 120 mg/kg twice a week, IP; day 17
Experimental: as §1
as §2, with “Inc.). Anti-CD11b+ antibody (eBioSciences), anti-L-selectin (BD BioSciences) and anti-CXCR4 (Torrey Pines Lab) were used in FACS experiments.” for “Inc.).”, “above. […]” for “above.”
(§3) B16F1 admixing experiments. […] Tumor size was assessed using Vernier calipers 2-3 times per week after tumors reached a palpable size. Tumor volume was determined using the Pi/6×L×W×W formula with L as the longest diameter and W the diameter at the position perpendicular to L. […]

EL4 tumors [2] = assay: Tumor growth of EL4 tumors in mice; type: in vivo, mouse; settings: EL4 in C57BL/6; 5FU 50 mg/kg once a week, Gemcitabine 120 mg/kg twice a week, IP; day 17
Experimental: as §1
as §2, with “Inc.). Anti-CD11b+ antibody (eBioSciences), anti-L-selectin (BD BioSciences) and anti-CXCR4 (Torrey Pines Lab) were used in FACS experiments.” for “Inc.).”, “above. […]” for “above.”
as §3

B16F1 tumors = assay: Tumor growth of B16F1 tumors in mice; type: in vivo, mouse; settings: B16F1 in C57BL/6; compared to anti-VEGF treatment; day 17
Experimental: as §1
as §2, with “Inc.). Anti-CD11b+ antibody (eBioSciences), anti-L-selectin (BD BioSciences) and anti-CXCR4 (Torrey Pines Lab) were used in FACS experiments.” for “Inc.).”, “above. […]” for “above.”
as §3

EL4 tumors [3] = assay: In vivo treatment with clodronate liposomes and anti-VEGF, EL4 tumor volume; set-up: species or system mouse; settings: mice bearing resistant tumors
Experimental: In vivo treatment to examine for macrophage depletion and tumor expression: EL4, the murine lymphocyte leukemia cell line, was used. Treatment was started 48 hours after implanting EL4 tumor cells (5×10^6, 0.1 ml vol. in matrigel) in nude mice. Treatment was as follows: Group 1: 8 mice, twice a week PBS-liposome 200 μl IV and Ragweed IgG 2×5 mg/kg/week 100 μl ip.; Group 2: 8 mice, twice a Week: PBS-liposome 200 μl IV and G6-31 2×5 mg/kg/week 100 μl ip.; Group 3: 8 mice, twice a week: Clodronate-liposome 200 μl IV. Ragweed IgG 2×5 mg/kg/week 100 μl ip.; Group 4: 8 mice twice a week: Clodronate-liposome 200 μl IV. G6-31 2×5 mg/kg/week 100 μl ip. Group 5: 8 mice twice a week: Clodronate-liposome 200 μl Iv. PBS twice a week 100 μl ip. 3 mice of each group were pre-bled for 50 μl of whole blood for FACS macrophage cell population evaluation. 3 mice of each group were bled (optical) for 100 μl of whole blood at 1 hour after each PBS-liposome or Clodronate-liposome injection for FACS analysis. The study continued until sufficient tumor growth (not beyond 5 weeks). Tumor growth was defined as sufficient if a tumor was greater than 20 mm in length. Tumor size was measured weekly (1×w×h). […] At the endpoint of the experiment the animals were sacrificed, the tumors, measured one final time then extracted, weighed and then fixed. […]

HUVEC cells = assay: Angiogenic sprouting and capillary lumen formation assay; type: cell-based, human; settings: 1.25 μg/ml with D551 fibroblasts, day 10
Experimental: See FIG. 13, Panel A and Pane B on day 10. In the assays, HUVEC cells were thawed at low passage number a day before the cells were coated on beads. The cells were detached at about 80% confluency and coated on cytodex microbeads (a cross-linked dextran matrix) with HUVEC (400 cells/bead) for 4 hours at 37° C. Beads and free HUVEC cells were transferred to a flask and cultured overnight. The beads were detached and they were mixed with fibrinogen (bovine plasma) (250 μg/ml). Fibrinogen was then converted to insoluble fibrin gel by adding thrombin. There are about 100 beads/12-well plate. The beads were cultured with 40,000 D551 fibroblasts and VEGF as positive controls, D551 or VEGF as negative controls, MCP-1 and D551, or MIP-1alpha and D551. The media was changed everyday. The cultures were stained with biotinylated anti-human CD31 and Cy3 streptavidin overnight with extensive washes. Pictures were taken at 60 hours, 6 days and 10 days.

Molecule	tumor response to chemotherapy (tumor volume) (TIB6 tumors)	CD11b+Gr1+ cells in B16F1 tumors after chemotherapy (CD11b+Gr1+ cells)	tumor response to chemotherapy (tumor volume) (LLC tumors)	tumor response to chemotherapy (tumor volume) (EL4 tumors [2])	tumor response to chemotherapy (tumor volume) (B16F1 tumors)	angiogenic activity (sprouting and capillary lumen formation) (HUVEC cells)	also measured
bevacizumab: humanized anti-VEGF monoclonal antibody	–	–	–	–	–	–	single-agent activity [1]: significant single-agent activity; tumor growth and tumor angiogenesis (xenograft models): significantly inhibited tumor growth and reduced tumor angiogenesis
Nc1ccn([C@@H]2O[C@H](CO)[C@@H](O)C2(F)F)c(=O)n1 [Gemcitabine]	completely sensitive	lack of CD11b+Gr1+ cells	partial resistance	partial resistance	resistance	–	–
O=P(O)(O)C(Cl)(Cl)P(=O)(O)O [clodronate]	–	–	–	–	–	–	efficacy of anti-VEGF treatment after depletion of TAMs (EL4 tumors [3]): improved
O=c1[nH]cc(F)c(=O)[nH]1 [5FU, 5-Fluorouracil]	completely sensitive	lack of CD11b+Gr1+ cells	complete response	complete response	resistance	–	BM CD11b+Gr1+ cells after chemotherapy (CD11b+Gr1+ cells; bone marrow, all tumor types): complete exhaustion
MCP-1: monocyte chemoattractant protein-1	–	–	–	–	–	angiogenic activity	–
B1	–	–	–	–	–	angiogenic activity	–
